In patent publication US11447493B2 (Kinnate Biopharma Inc., priority 2018, dated 2022):

Legend:
Assay in all cases: Radiometric protein kinase assay (33PanQinase), Assay Condition A (thiol containing)
Type in all cases: biochemical
[1] = biological target: CDK2/CycA2 (Homo sapiens (Human), UniProt P24941); conditions: thiol containing (1.2 mM DTT), ATP 0.3 μM
Procedure: (§1) The IC50 profile of test compounds was determined using three protein kinases.
(§2) The compounds were provided as pre-weighed powders in vials. The compounds were dissolved to 1×10^−02M by adding DMSO. 100 μl of each of the resulting stock solutions were transferred into column 2 of four 96 well “master plates”.
(§3) Prior to testing, the 1×10^−02M stock solutions in column 2 of the master plates were subjected to a serial, semi-logarithmic dilution using 100% DMSO as a solvent. […] Column 1 and 7 were filled with 100% DMSO as controls. Subsequently, 2×10 μl from each well of the serial diluted copy plates were aliquoted with a 96 channel pipettor into two identical sets of “compound dilution plates”.
(§4) In the process, 90 μl H2O were added to each well of a set of compound dilution plates. To minimize potential precipitation, the H2O was added to each plate only a few minutes before the transfer of the compound solutions into the assay plates. Each plate was shaken thoroughly, resulting in a “compound dilution plate/10% DMSO”.
(§5) For the assays, 5 μl solution from each well of the compound dilution plates/10% DMSO were transferred into the assay plates. The final volume of the assay was 50 μl. All compounds were tested at 10 final assay concentrations in the range from 1×10^−04M to 3×10^−09M, in singlicate. The final DMSO concentration in the reaction cocktails was 1% in all cases.
(§6) All protein kinases were expressed in Sf9 insect cells or in E. coli as recombinant GST-fusion proteins or His-tagged proteins, either as full-length or enzymatically active fragments. All kinases were produced from human cDNAs and purified by either GSH-affinity chromatography or immobilized metal. Affinity tags were removed from a number of kinases during purification. The purity of the protein kinases was examined by SDS-PAGE/Coomassie staining, the identity was checked by mass spectroscopy.
(§7) A radiometric protein kinase assay (^33PanQinase® Activity Assay) was used for measuring the kinase activity of the three protein kinases. All kinase assays were performed in 96-well FlashPlates™ from PerkinElmer (Boston, Mass., USA) in a 50 μl reaction volume. The reaction cocktail was pipetted in four steps in the following order: • 20 μl of assay buffer (standard buffer) • 5 μl of ATP solution (in H2O) • 5 μl of test compound (in 10% DMSO) • 20 μl enzyme/substrate mix
(§8) The reaction cocktails were incubated at 30° C. for 60 minutes. The reaction was stopped with 50 μl of 2% (v/v) H3PO4, plates were aspirated and washed two times with 200 μl 0.9% (w/v) NaCl. Incorporation of ^33Pi was determined with a microplate scintillation counter (Microbeta, Wallac). All assays were performed with a BeckmanCoulter/SAGIAN™ Core System.
(§9) The median value of the counts in column 1 (n=8) of each assay plate was defined as “low control”. This value reflects unspecific binding of radioactivity to the plate in the absence of a protein kinase but in the presence of the substrate. The median value of the counts in column 7 of each assay plate (n=8) was taken as the “high control”, i.e. full activity in the absence of any inhibitor. The difference between high and low control was taken as 100% activity.
(§10) As part of the data evaluation the low control value from a particular plate was subtracted from the high control value as well as from all 80 “compound values” of the corresponding plate. The residual activity (in %) for each well of a particular plate was calculated by using the following formula: Res. Activity (%)=100×[(cpm of compound−low control)/(high control−low control)]
(§11) The residual activities for each concentration and the compound IC50 values were calculated using Quattro Workflow V3.1.1 (Quattro Research GmbH, Munich, Germany). […] The fitting method used was a least-squares fit.

[2] = biological target: CDK12 wt/CycK (Homo sapiens (Human), UniProt Q9NYV4); conditions: thiol containing (1.2 mM DTT), ATP 0.3 μM
Sequence of CDK12 wt/CycK (Q9NYV4 whole entry): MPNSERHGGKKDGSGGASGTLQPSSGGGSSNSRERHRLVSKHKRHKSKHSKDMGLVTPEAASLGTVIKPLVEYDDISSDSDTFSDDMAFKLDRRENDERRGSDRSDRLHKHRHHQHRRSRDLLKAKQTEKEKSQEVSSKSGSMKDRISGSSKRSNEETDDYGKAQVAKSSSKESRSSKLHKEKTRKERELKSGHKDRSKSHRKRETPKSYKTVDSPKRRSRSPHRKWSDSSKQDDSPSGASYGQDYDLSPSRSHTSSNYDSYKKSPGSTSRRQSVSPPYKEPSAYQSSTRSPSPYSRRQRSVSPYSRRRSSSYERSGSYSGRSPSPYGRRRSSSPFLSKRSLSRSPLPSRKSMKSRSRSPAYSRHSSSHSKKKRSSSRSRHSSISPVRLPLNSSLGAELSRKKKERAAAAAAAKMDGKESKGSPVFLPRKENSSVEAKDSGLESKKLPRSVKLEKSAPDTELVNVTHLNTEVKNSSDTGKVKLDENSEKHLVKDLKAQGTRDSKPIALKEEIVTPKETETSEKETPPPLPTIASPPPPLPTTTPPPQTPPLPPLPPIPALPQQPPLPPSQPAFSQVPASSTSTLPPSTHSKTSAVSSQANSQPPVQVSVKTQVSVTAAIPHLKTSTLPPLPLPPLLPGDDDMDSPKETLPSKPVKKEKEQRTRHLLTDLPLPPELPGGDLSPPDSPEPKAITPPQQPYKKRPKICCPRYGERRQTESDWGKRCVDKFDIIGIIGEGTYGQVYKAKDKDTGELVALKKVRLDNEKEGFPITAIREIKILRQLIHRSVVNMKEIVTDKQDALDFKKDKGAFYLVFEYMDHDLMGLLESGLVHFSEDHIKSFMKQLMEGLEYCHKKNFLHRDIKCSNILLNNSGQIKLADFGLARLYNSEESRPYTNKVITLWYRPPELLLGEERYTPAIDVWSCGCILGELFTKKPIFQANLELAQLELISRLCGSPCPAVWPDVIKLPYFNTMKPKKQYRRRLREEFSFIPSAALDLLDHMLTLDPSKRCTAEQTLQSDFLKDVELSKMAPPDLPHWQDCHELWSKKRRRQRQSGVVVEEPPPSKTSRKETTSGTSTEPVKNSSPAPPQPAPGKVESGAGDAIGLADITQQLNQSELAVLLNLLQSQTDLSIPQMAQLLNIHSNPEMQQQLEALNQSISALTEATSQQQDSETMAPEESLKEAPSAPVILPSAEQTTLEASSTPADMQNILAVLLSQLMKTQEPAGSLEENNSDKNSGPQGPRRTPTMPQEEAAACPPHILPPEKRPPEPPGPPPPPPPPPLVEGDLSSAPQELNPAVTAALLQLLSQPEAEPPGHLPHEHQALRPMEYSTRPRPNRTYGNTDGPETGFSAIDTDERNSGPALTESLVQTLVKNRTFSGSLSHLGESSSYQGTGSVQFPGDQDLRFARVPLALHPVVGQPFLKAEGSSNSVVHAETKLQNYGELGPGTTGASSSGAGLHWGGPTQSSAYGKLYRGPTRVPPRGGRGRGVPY
Sequence of CDK12 wt/CycK (O75909 whole entry partner): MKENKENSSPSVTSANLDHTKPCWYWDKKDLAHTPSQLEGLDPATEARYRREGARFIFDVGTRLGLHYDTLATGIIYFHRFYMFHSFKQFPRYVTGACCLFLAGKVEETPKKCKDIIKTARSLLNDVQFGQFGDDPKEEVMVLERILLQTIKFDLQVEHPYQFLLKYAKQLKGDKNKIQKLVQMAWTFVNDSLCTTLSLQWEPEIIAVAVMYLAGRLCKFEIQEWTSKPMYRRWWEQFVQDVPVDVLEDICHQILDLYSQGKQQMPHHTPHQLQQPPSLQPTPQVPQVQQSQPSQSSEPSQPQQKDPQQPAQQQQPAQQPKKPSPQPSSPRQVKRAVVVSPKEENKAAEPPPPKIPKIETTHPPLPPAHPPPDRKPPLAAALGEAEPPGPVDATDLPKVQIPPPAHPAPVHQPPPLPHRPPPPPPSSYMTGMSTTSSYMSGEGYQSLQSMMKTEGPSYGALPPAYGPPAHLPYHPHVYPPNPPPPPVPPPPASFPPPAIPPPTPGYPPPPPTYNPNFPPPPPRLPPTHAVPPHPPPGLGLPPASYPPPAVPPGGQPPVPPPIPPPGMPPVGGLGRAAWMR
Procedure: as §1, §2, §3, §4, §5, §6, §7, §8, §9, §10, §11

[3] = biological target: CDK7/CycH/MAT1 (Homo sapiens (Human), UniProt P50613); conditions: thiol containing (1.2 mM DTT), ATP 3.0 μM
Sequence of CDK7/CycH/MAT1 (P50613 whole entry): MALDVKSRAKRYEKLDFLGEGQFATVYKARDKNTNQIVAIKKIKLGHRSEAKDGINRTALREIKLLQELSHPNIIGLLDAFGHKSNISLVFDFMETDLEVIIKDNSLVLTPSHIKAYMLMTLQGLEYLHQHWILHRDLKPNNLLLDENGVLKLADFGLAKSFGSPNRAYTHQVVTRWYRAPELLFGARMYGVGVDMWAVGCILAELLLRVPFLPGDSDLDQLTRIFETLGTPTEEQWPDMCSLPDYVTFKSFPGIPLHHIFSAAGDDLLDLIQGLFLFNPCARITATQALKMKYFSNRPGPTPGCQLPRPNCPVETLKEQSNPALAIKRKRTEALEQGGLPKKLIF
Sequence of CDK7/CycH/MAT1 (P51946 whole entry partner): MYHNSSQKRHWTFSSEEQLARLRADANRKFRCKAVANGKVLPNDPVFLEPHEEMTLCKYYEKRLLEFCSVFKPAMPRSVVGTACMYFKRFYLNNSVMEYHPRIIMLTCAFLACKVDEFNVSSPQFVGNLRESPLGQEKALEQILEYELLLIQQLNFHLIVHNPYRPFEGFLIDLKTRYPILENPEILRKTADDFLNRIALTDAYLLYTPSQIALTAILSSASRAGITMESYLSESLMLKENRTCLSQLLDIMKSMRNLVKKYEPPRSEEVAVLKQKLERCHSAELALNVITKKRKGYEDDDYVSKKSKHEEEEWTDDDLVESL
Sequence of CDK7/CycH/MAT1 (P51948 whole entry partner): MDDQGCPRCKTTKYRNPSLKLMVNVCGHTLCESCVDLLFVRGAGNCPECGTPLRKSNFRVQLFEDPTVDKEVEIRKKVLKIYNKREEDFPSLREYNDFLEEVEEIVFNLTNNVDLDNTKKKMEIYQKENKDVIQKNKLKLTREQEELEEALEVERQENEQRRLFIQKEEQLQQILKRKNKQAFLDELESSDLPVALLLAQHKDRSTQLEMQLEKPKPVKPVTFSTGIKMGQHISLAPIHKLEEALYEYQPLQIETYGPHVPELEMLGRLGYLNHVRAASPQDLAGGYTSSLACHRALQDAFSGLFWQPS
Procedure: as §1, §2, §3, §4, §5, §6, §7, §8, §9, §10, §11

Compound	IC50 [1] [nM]	IC50 [2] [nM]	IC50 [3] [nM]
CCC(=O)Nc1ccc(C(=O)N2CCC[C@@H](Nc3ncc4cc(Cl)ccc4n3)C2)cc1 [Example 19, (R)-N-(4-(3-((6-chloroquinazolin-2-yl)amino)piperidine-1-carbonyl)phenyl)propionamide]	30000 to 100000	30000 to 100000	30000 to 100000
CCC(=O)Nc1ccc(C(=O)N2CCC[C@@H](Nc3ncc4ccc(S(C)(=O)=O)cc4n3)C2)cc1 [Example 21, (R)-N-(4-(3-((7-(methylsulfonyl)quinazolin-2-yl)amino)piperidine-1-carbonyl)phenyl)propionamide]	10000 to 30000	10000 to 30000	30000 to 100000
C=CC(=O)Nc1ccc(C(=O)N2CCC[C@@H](Nc3ncc4cc(Cl)ccc4n3)C2)cc1 [Example 3, (R)-N-(4-(3-((6-chloroquinazolin-2-yl)amino)piperidine-1-carbonyl)phenyl)acrylamide]	30000 to 100000	1000 to 10000	30000 to 100000
C=CC(=O)Nc1ccc(C(=O)N2CC[C@@H](Nc3ncc4ccncc4n3)C2)cc1 [Example 31, (R)-N-(4-(3-(pyrido[3,4-d]pyrimidin-2-ylamino)pyrrolidine-1-carbonyl)phenyl)acrylamide]	100 to 1000	≤ 100	1000 to 10000
CCC(=O)Nc1ccc(C(=O)N2CCC[C@@H](Nc3ncc4ccccc4n3)C2)cc1 [Example 17, (R)-N-(4-(3-(quinazolin-2-ylamino)piperidine-1-carbonyl)phenyl)propionamide]	30000 to 100000	30000 to 100000	30000 to 100000
C=CC(=O)N1CCOc2cc(C(=O)N3CC[C@@H](Nc4ncc5ccccc5n4)C3)ccc21 [Example 80, (R)-1-(7-(3-(quinazolin-2-ylamino)pyrrolidine-1-carbonyl)-2H-benzo[b][1,4]oxazin-4(3H)-yl)prop-2-en-1-one]	100 to 1000	≤ 100	100 to 1000
C=CC(=O)Nc1ccc(C(=O)N2CC[C@@H](Nc3ncc4cc(F)ccc4n3)C2)cc1C [Example 92, (R)—N-(4-(3-((6-fluoroquinazolin-2-yl)amino)pyrrolidine-1-carbonyl)-2-methylphenyl)acrylamide]	1000 to 10000	≤ 100	1000 to 10000
C=CC(=O)Nc1ccc(C(=O)N2CC[C@@H](Nc3ncc4c(F)cccc4n3)C2)cc1 [Example 91, (R)—N-(4-(3-((5-fluoroquinazolin-2-yl)amino)pyrrolidine-1-carbonyl)phenyl)acrylamide]	1000 to 10000	100 to 1000	1000 to 10000
C=CC(=O)Nc1ccc(C(=O)N2CC[C@@H](Nc3ncc4ccccc4n3)C2)c(C)c1 [Example 78]	1000 to 10000	100 to 1000	1000 to 10000
CC#CC(=O)Nc1ccc(C(=O)N2CC[C@@H](Nc3ncc4ccccc4n3)C2)cc1 [Example 77, (R)—N-(4-(3-(quinazolin-2-ylamino)pyrrolidine-1-carbonyl)phenyl)but-2-ynamide]	100 to 1000	≤ 100	100 to 1000
CN(C)C/C=C/C(=O)Nc1ccc(C(=O)N2CC[C@@H](Nc3ncc4ccccc4n3)C2)cc1 [Example 65, (R,E)-4-(dimethylamino)-N-(4-(3-(quinazolin-2-ylamino)pyrrolidine-1-carbonyl)phenyl)but-2-enamide]	100 to 1000	100 to 1000	100 to 1000
CCC(=O)Nc1ccc(C(=O)N2CCC[C@@H](Nc3ncc4ccc(Cl)cc4n3)C2)cc1 [Example 22, (R)-N-(4-(3-((7-chloroquinazolin-2-yl)amino)piperidine-1-carbonyl)phenyl)propionamide]	30000 to 100000	30000 to 100000	30000 to 100000
C=CC(=O)Nc1ccc(C(=O)N2CCC[C@@H](Nc3ncc4cc(C)ccc4n3)C2)cc1 [Example 8, (R)-N-(4-(3-((6-methylquinazolin-2-yl)amino)piperidine-1-carbonyl)phenyl)acrylamide]	30000 to 100000	10000 to 30000	30000 to 100000

Other lines, results leading:

IC50 [1] [nM]	IC50 [2] [nM]	IC50 [3] [nM]	Compound
1000 to 10000	100 to 1000	10000 to 30000	C=CC(=O)Nc1ccc(C(=O)N2CCC[C@@H](Nc3ncc4ccc(C(=O)O)cc4n3)C2)cc1 [Example 14, (R)-2-((1-(4-acrylamidobenzoyl)piperidin-3-yl)amino)quinazoline-7-carboxylic acid]
1000 to 10000	100 to 1000	100 to 1000	CN(C)C/C=C/C(=O)N1CCOc2cc(C(=O)N3CC[C@@H](Nc4ncc5ccccc5n4)C3)ccc21 [Example 84, (R,E)-4-(dimethylamino)-1-(7-(3-(quinazolin-2-ylamino)pyrrolidine-1-carbonyl)-2H-benzo[b][1,4]oxazin-4(3H)-yl)but-2-en-1-one]
1000 to 10000	≤ 100	1000 to 10000	CCC(=O)Nc1ccc(C(=O)N2CC[C@@H](Nc3ncc4ccc(=O)[nH]c4n3)C2)cc1 [Example 60, (R)—N-(4-(3-((7-oxo-7,8-dihydropyrido[2,3-d]pyrimidin-2-yl)amino)pyrrolidine-1-carbonyl)phenyl)propionamide]
100 to 1000	100 to 1000	1000 to 10000	CCC(=O)Nc1ccc(C(=O)N2CC[C@@H](Nc3ncc4ccc(S(C)(=O)=O)cc4n3)C2)cc1 [Example 52, (R)—N-(4-(3-((7-(methylsulfonyl)quinazolin-2-yl)amino)pyrrolidine-1-carbonyl)phenyl)propionamide]
1000 to 10000	100 to 1000	100 to 1000	C=CS(=O)(=O)Nc1ccc(C(=O)N2CC[C@@H](Nc3ncc4ccccc4n3)C2)cc1 [Example 95, (R)—N-(4-(3-(quinazolin-2-ylamino)pyrrolidine-1-carbonyl)phenyl)ethenesulfonamide]
1000 to 10000	100 to 1000	100 to 1000	CN(C)C/C=C/C(=O)N1CCCc2cc(C(=O)N3CC[C@@H](Nc4ncc5ccccc5n4)C3)ccc21 [Example 89, (R,E)-4-(dimethylamino)-1-(6-(3-(quinazolin-2-ylamino)pyrrolidine-1-carbonyl)-3,4-dihydroquinolin-1(2H)-yl)but-2-en-1-one]
30000 to 100000	10000 to 30000	30000 to 100000	C=CC(=O)Nc1ccc(C(=O)N2CCC[C@@H](Nc3ncc4ccc(OC)cc4n3)C2)cc1 [Example 6, (R)-N-(4-(3-((7-methoxyquinazolin-2-yl)amino)piperidine-1-carbonyl)phenyl)acrylamide]
1000 to 10000	100 to 1000	1000 to 10000	CCC(=O)Nc1ccc(C(=O)N2CC[C@@H](Nc3cc4ccccc4cn3)C2)cc1 [Example 45, (R)—N-(4-(3-(isoquinolin-3-ylamino)pyrrolidine-1-carbonyl)phenyl)propionamide]
1000 to 10000	100 to 1000	1000 to 10000	CCC(=O)Nc1ccc(C(=O)N2CC[C@@H](Nc3ncc4ccncc4n3)C2)cc1 [Example 50, (R)—N-(4-(3-(pyrido[3,4-d]pyrimidin-2-ylamino)pyrrolidine-1-carbonyl)phenyl)propionamide]
1000 to 10000	1000 to 10000	1000 to 10000	CCC(=O)Nc1ccc(C(=O)N2CC[C@@H](Nc3ncc4cc(C)ccc4n3)C2)cc1 [Example 49, (R)—N-(4-(3-((6-methylquinazolin-2-yl)amino)pyrrolidine-1-carbonyl)phenyl)propionamide]
10000 to 30000	100 to 1000	30000 to 100000	C=CC(=O)Nc1ccc(C(=O)N2CC[C@@H](Nc3ncc4cc(OC)ccc4n3)C2)cc1 [Example 29, (R)-N-(4-(3-((6-methoxyquinazolin-2-yl)amino)pyrrolidine-1-carbonyl)phenyl)acrylamide]
